This note sets out measurements from patent publication US20250009742A1 (priority 2021, published 2025).

One data set concerns intracellular HBV DNA. The data set is described as follows: Real-time PCR for intracellular HBV DNA in HepAD38 cells. The class given is cell-based. Conditions: Hepatitis B virus, HePAD38, 65 h, 65 hours treatment. On the technique in general: Real-time PCR tracks product formation cycle by cycle.
The next data set addresses Protein (Hepatitis B virus genotype D subtype ayw, UniProt P03146). The data set is described as follows: Protein inhibition rate / EC50 (Table 1, no method described). The class given is biochemical.
Data set [1] in a line: Cell viability assay (EZ-Cytox), cytotoxicity. The settings on record: human, HepAD38 cells; for viability at 65 h, 100 µM: read-out: Cytotoxicity % Livability (@100 μM). The class given is cell-based. On the procedure: HepAD38 cells were cultured for 2 days in Dulbecco's Modified Eagle's medium (Welgene, LM001-05) supplemented with 10% FBS without tetracycline. […] After 65 hours of treatment, viability was measured using EZ-Cytox cell viability assay kit (Daeil Lab Service) according to the manufacturer's instructions. The absorbance was measured at 450 nm using a spectrophotometer (Spark, Tecan).

Sequence of Protein (P03146 whole entry): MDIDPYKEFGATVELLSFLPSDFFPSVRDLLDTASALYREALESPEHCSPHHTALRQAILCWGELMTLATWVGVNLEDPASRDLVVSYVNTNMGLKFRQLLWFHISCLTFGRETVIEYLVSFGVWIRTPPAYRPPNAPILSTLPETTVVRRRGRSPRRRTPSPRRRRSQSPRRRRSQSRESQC

A word on the IC50: it is the midpoint of a concentration-inhibition curve. Read a low IC50 as greater potency in that assay. By EC50 is commonly meant the concentration needed to bring the measured effect to its halfway point. Read a low EC50 as a more potent agent. As a reminder, the inhibition is the drop in the measured response relative to a control, in per cent. For orientation: CC50 means the concentration giving 50% cytotoxicity. On to `COc1ccc(N(Cc2n[nH]c3ccccc23)C(=O)Nc2ccc(F)c(Cl)c2)cn1` [Example 43, 1-((1H-indazol-3-yl)methyl)-3-(3-chloro-4-fluorophenyl)-1-(6-methoxypyridin-3-yl)urea], for which the IC50 with intracellular HBV DNA is 0.043 µM. At Protein, this molecule had an EC50 of 6.06 µM and an inhibition at 30 µM of 96.7%. Also, in data set [1], the CC50 at 65 h is more than 100 µM and the viability at 65 h, 100 µM amounted to 92%.
In the data set with intracellular HBV DNA, `COc1ccc(N(Cc2n[nH]c3c2CC(CO)CC3)C(=O)Nc2ccc(F)c(Cl)c2)cn1` (centres unmarked) [Example 44, 3-(3-chloro-4-fluorophenyl)-1-((5-(hydroxymethyl)-4,5,6,7-tetrahydro-1H-indazol-3-yl)methyl)-1-(6-methoxypyridin-3-yl)urea] gave an IC50 of more than 1.1 µM. The molecule also returned an inhibition at 30 µM against Protein of 58%. Moreover, in data set [1], the CC50 at 65 h was more than 100 µM and the viability at 65 h, 100 µM amounted to 100%.
For the molecule `COc1ccc(N(Cc2n[nH]c3c2CSCC3)C(=O)Nc2ccc(F)c(Cl)c2)cn1` [Example 45, 3-(3-chloro-4-fluorophenyl)-1-(6-methoxypyridin-3-yl)-1-((1,4,6,7-tetrahydrothiopyrano[4,3-c]pyrazol-3-yl)methyl)urea], the IC50 in the data set with intracellular HBV DNA was determined as 0.012 µM. On Protein, the EC50 came out at 3.3 µM and testing at 30 µM gave an inhibition of 95.6%. Moreover, in data set [1], the CC50 at 65 h was more than 50 µM and the viability at 65 h, 100 µM came out at 3.3%.
In turn, `COc1ccc(N(Cc2n[nH]c3c2CCC3)C(=O)Nc2ccc(F)c(Cl)c2)cc1` [Example 46, 3-(3-chloro-4-fluorophenyl)-1-(4-methoxyphenyl)-1-((1,4,5,6-tetrahydrocyclopenta[c]pyrazol-3-yl)methyl)urea] returned an IC50 in the data set on intracellular HBV DNA of 0.0094 µM. On Protein, this molecule came in with a concentration for a half-maximal effect (EC50) of 4.3 µM and an inhibition at 30 µM of 92.8%. For the same molecule, in data set [1], the CC50 at 65 h was more than 100 µM and the viability at 65 h, 100 µM worked out at 100%.
For `COc1ccc(N(Cc2n[nH]c3c2CC(C)(C)CC3)C(=O)Nc2ccc(F)c(Cl)c2)cn1` [Example 47, 3-(3-chloro-4-fluorophenyl)-1-((5,5-dimethyl-4,5,6,7-tetrahydro-1H-indazol-3-yl)methyl)-1-(6-methoxypyridin-3-yl)urea], it took 0.99 µM to reach half-maximal inhibition in the data set on intracellular HBV DNA (IC50). At Protein, this molecule had an EC50 of 9.6 µM and an inhibition at 30 µM of 95.3%. Also, in data set [1], the CC50 at 65 h is more than 100 µM and the viability at 65 h, 100 µM stood at 50.7%.
On to `COc1ccc(N(Cc2n[nH]c3c2CC(O)CC3)C(=O)Nc2ccc(F)c(Cl)c2)cn1` (centres unmarked) [Example 48, 3-(3-chloro-4-fluorophenyl)-1-((5-hydroxy-4,5,6,7-tetrahydro-1H-indazol-3-yl)methyl)-1-(6-methoxypyridin-3-yl)urea], for which, in the data set on intracellular HBV DNA, the IC50 worked out at 1.1 µM. Moreover, at Protein, a half-maximal effect (EC50) was put at 6.4 µM and the inhibition at 30 µM was determined as 90%. The half-maximal cytotoxic concentration (CC50) at 65 h in data set [1] was more than 100 µM.
`COc1ccc(N(Cc2n[nH]c3c2CS(=O)(=O)CC3)C(=O)Nc2ccc(F)c(Cl)c2)cn1` [Example 49, 3-(3-chloro-4-fluorophenyl)-1-((5,5-dioxido-1,4,6,7-tetrahydrothiopyrano[4,3-c]pyrazol-3-yl)methyl)-1-(6-methoxypyridin-3-yl)urea] yielded an IC50 with intracellular HBV DNA of more than 1.1 µM. For the same molecule, 30 µM produced 72% inhibition against Protein. Further, the CC50 at 65 h in data set [1] was more than 100 µM.
Turning to `COc1ccc(N(Cc2cc(C)[nH]n2)C(=O)Nc2ccc(F)c(Cl)c2)cn1` [Example 50, 3-(3-chloro-4-fluorophenyl)-1-(6-methoxypyridin-3-yl)-1-((5-methyl-1H-pyrazol-3-yl)methyl)urea], inhibition with intracellular HBV DNA was half-maximal at 0.26 µM (IC50). On Protein, this molecule showed a 50% effective concentration (EC50) of 3.8 µM and an inhibition at 30 µM of 94.3%. The CC50 at 65 h in data set [1] is more than 100 µM.
In the data set on intracellular HBV DNA, `COc1ccc(N(Cc2n[nH]c3c2C2CCC3C2)C(=O)Nc2ccc(F)c(Cl)c2)cn1` (centres unmarked) [Example 51, 3-(3-chloro-4-fluorophenyl)-1-(6-methoxypyridin-3-yl)-1-((4,5,6,7-tetrahydro-1H-4,7-methanoindazol-3-yl)methyl)urea] returned an IC50 of 0.035 µM. On Protein, this molecule showed an EC50 of 3.4 µM and an inhibition at 30 µM of 87.1%. For the same molecule, in data set [1], the CC50 at 65 h was more than 50 µM and the viability at 65 h, 100 µM worked out at 36.7%.
The molecule `COc1ccc(N(Cc2n[nH]c3c2CC(C(=O)O)CC3)C(=O)Nc2ccc(F)c(Cl)c2)cn1` (centres unmarked) [Example 52, 3-((3-(3-chloro-4-fluorophenyl)-1-(6-methoxypyridin-3-yl)ureido)methyl)-4,5,6,7-tetrahydro-1H-indazole-5-carboxylic acid] yielded an IC50 in the data set with intracellular HBV DNA of more than 1.1 µM. The molecule further came in with an inhibition at 30 µM against Protein of 4%. In data set [1], the CC50 at 65 h was more than 100 µM and the viability at 65 h, 100 µM is 100%.
In the data set with intracellular HBV DNA, `COC(=O)C1CCc2[nH]nc(CN(C(=O)Nc3ccc(F)c(Cl)c3)c3ccc(OC)nc3)c2C1` (centres unmarked) [Example 53, methyl 3-((3-(3-chloro-4-fluorophenyl)-1-(6-methoxypyridin-3-yl)ureido)methyl)-4,5,6,7-tetrahydro-1H-indazole-5-carboxylate] showed an IC50 of more than 1.1 µM. Besides, 30 µM produced 20.1% inhibition against Protein. In data set [1], the CC50 at 65 h was more than 100 µM and the viability at 65 h, 100 µM stood at 58.9%.
In turn, `COc1cc(N(Cc2n[nH]c3c2CCCC3)C(=O)Nc2ccc(F)c(Cl)c2)ccn1` [Example 54, 3-(3-chloro-4-fluorophenyl)-1-(2-methoxypyridin-4-yl)-1-((4,5,6,7-tetrahydro-1H-indazol-3-yl)methyl)urea] gave an IC50 with intracellular HBV DNA of 0.013 µM. On Protein, this molecule came in with an EC50 of 3.5 µM and an inhibition at 30 µM of 84%. Further, in data set [1], it took 40.6 µM to reach half-maximal cytotoxicity (CC50 at 65 h) and the viability at 65 h, 100 µM amounted to 17.4%.
The like results for `COc1ccc(N(Cc2n[nH]cc2C)C(=O)Nc2ccc(F)c(Cl)c2)cn1` [Example 56, 3-(3-chloro-4-fluorophenyl)-1-(6-methoxypyridin-3-yl)-1-((4-methyl-1H-pyrazol-3-yl)methyl)urea] were, in that order, 0.4 µM, 6.6 µM, 86.4%, more than 100 µM and 98.2%.
For `COc1ccc(N(Cc2n[nH]c(C)c2C)C(=O)Nc2ccc(F)c(Cl)c2)cn1` [Example 57, 3-(3-chloro-4-fluorophenyl)-1-((4,5-dimethyl-1H-pyrazol-3-yl)methyl)-1-(6-methoxypyridin-3-yl)urea], in that order: 0.023 µM, 2 µM, 96.2%, more than 100 µM and 93.2%.
For `COc1ccc(N(Cc2cc(C(C)C)[nH]n2)C(=O)Nc2ccc(F)c(Cl)c2)cn1` [Example 58, 3-(3-chloro-4-fluorophenyl)-1-((5-isopropyl-1H-pyrazol-3-yl)methyl)-1-(6-methoxypyridin-3-yl)urea], in that order: 0.16 µM, 5 µM, 93.1%, more than 100 µM and 92.7%.
The molecule `COc1ccc(N(Cc2n[nH]c3c2CCC3C)C(=O)Nc2ccc(F)c(Cl)c2)cn1` (centres unmarked) [Example 59, 3-(3-chloro-4-fluorophenyl)-1-(6-methoxypyridin-3-yl)-1-((6-methyl-1,4,5,6-tetrahydrocyclopenta[c]pyrazol-3-yl)methyl)urea] gave a 50% inhibitory concentration (IC50) in the data set on intracellular HBV DNA of 0.013 µM. For the same molecule, on Protein, a half-maximal response (EC50) required 4 µM and at 30 µM the inhibition was 94.9%. In data set [1], the half-maximal cytotoxic concentration (CC50) at 65 h is more than 100 µM and the viability at 65 h, 100 µM came out at 91.2%.
In turn, `CCc1cc(CN(C(=O)Nc2ccc(F)c(Cl)c2)c2ccc(OC)nc2)n[nH]1` [Example 60, 3-(3-chloro-4-fluorophenyl)-1-((5-ethyl-1H-pyrazol-3-yl)methyl)-1-(6-methoxypyridin-3-yl)urea] showed an IC50 in the data set with intracellular HBV DNA of 0.11 µM. For the same molecule, at Protein, the response was half-maximal at 3 µM (EC50) and testing at 30 µM gave an inhibition of 94.7%. In data set [1], the 50% cytotoxic concentration (CC50) at 65 h is more than 100 µM and the viability at 65 h, 100 µM is 76%.
Regarding `COc1ccc(N(Cc2n[nH]c3c2CC(C(F)(F)F)CC3)C(=O)Nc2ccc(F)c(Cl)c2)cn1` (centres unmarked) [Example 62, 3-(3-chloro-4-fluorophenyl)-1-(6-methoxypyridin-3-yl)-1-((5-(trifluoromethyl)-4,5,6,7-tetrahydro-1H-indazol-3-yl)methyl)urea], in the data set with intracellular HBV DNA, the IC50 turned out to be 0.2 µM. On Protein, this molecule came in with an EC50 of 6.9 µM and an inhibition at 30 µM of 100%. In data set [1], the CC50 at 65 h stood at 86.7 µM and the viability at 65 h, 100 µM came to 6.5%.
`COc1ccc(N(Cc2n[nH]c3c2CCCO3)C(=O)Nc2ccc(F)c(Cl)c2)cn1` [Example 63, 3-(3-chloro-4-fluorophenyl)-1-(6-methoxypyridin-3-yl)-1-((1,4,5,6-tetrahydropyrano[2,3-c]pyrazol-3-yl)methyl)urea]: the IC50 in the data set with intracellular HBV DNA came out at 0.014 µM. Moreover, on Protein, the EC50 worked out at 2.6 µM and the inhibition at 30 µM worked out at 90.5%. Also, in data set [1], the CC50 at 65 h is more than 100 µM and the viability at 65 h, 100 µM was found to be 94.5%.
Molecule `COc1ccc(N(Cc2cc(OC)[nH]n2)C(=O)Nc2ccc(F)c(Cl)c2)cn1` [Example 64, 3-(3-chloro-4-fluorophenyl)-1-((5-methoxy-1H-pyrazol-3-yl)methyl)-1-(6-methoxypyridin-3-yl)urea] registered an IC50 with intracellular HBV DNA of 0.18 µM. At Protein, the EC50 was 5.8 µM and the inhibition at 30 µM was found to be 91.1%. In data set [1], the CC50 at 65 h was more than 100 µM and the viability at 65 h, 100 µM came to 100%.
The like results for `Cn1cc(N(Cc2n[nH]c3c2CCC3)C(=O)Nc2ccc(F)c(Cl)c2)ccc1=O` [Example 65, 3-(3-chloro-4-fluorophenyl)-1-(1-methyl-6-oxo-1,6-dihydropyridin-3-yl)-1-((1,4,5,6-tetrahydrocyclopenta[c]pyrazol-3-yl)methyl)urea] were, in that order, more than 1.1 µM, more than 30 µM, 53.5%, more than 100 µM and 112%.
